Reference: publication PMC8818328 (European journal of medicinal chemistry, 2021)

How the values were obtained:
[1] = test system: HCT116, HT-29, K562, KG-1, A-498 and Caki-1 cell lines; test: MTT assay, all six tested cell lines; format: cell-based; settings: 10 μM, range over six cell lines
[2] = test system: renal cancer cell lines A-498 and Caki-1; test: MTT assay, renal cancer cell lines; format: cell-based; settings: for GI% renal cancer cell lines A-498 and Caki-1: 10 μM, range over both cell lines; for IC50: read-out: IC50 against the tested renal cancer cell lines
HDAC1 = HDAC1 (Homo sapiens, UniProt Q13547); test: Fluorogenic enzymatic assay HDAC1; format: biochemical
Caki-1 cells = test: Cell cycle analysis by flow cytometry, Caki-1; format: cell-based; settings: 24 h
[3] = test system: HDAC2, p-FAK, p-Akt in A-498 cells; test: Resistance development assay, Western blot of HDAC2, p-FAK, FAK, p-Akt, Akt
caspase-3 = test: Active caspase-3 ELISA in A-498 cells; format: cell-based, human; settings: control 45.57
STAT3 in A-498 cells = test: Western blot of STAT3 activation; format: cell-based
A-498 cells [4] = test: Cell cycle analysis by flow cytometry, A-498; format: cell-based; settings: 24 h
caspase-9 = test: Caspase-9 ELISA in A-498 cells; format: cell-based, human; settings: 24 h, control 4.53
[5] = test system: HDAC2 and FAK in Caki-1 cells; test: Western blot of HDAC2 expression and FAK phosphorylation, Caki-1 cells; format: cell-based; settings: 24 h at IC50, Western blot
[6] = test system: HDAC2 and FAK in A-498 cells; test: Western blot of HDAC2 expression and FAK phosphorylation, A-498 cells; format: cell-based; settings: 24 h at IC50, Western blot
caspase-8 = test: Caspase-8 ELISA in A-498 cells; format: cell-based, human; settings: 24 h, control 0.274
A-498 cells [7] = test: Resistance development assay; settings: Homo sapiens, A498, read-out: IC50 on pretreated A-498 cells
K562 = test: MTT proliferation assay, K562; format: cell-based; settings: Homo sapiens, K562, 24 h, read-out: Growth inhibition (%) K562
HCT116 = test: MTT proliferation assay, HCT116; format: cell-based; settings: Homo sapiens, HCT-116, 24 h, read-out: Growth inhibition (%) HCT116
[8] = A-498 cells, both pretreated (12 weeks) and not pretreated
[9] = A-498 cells pretreated 12 weeks

Sequence of HDAC1 (Q13547 whole entry): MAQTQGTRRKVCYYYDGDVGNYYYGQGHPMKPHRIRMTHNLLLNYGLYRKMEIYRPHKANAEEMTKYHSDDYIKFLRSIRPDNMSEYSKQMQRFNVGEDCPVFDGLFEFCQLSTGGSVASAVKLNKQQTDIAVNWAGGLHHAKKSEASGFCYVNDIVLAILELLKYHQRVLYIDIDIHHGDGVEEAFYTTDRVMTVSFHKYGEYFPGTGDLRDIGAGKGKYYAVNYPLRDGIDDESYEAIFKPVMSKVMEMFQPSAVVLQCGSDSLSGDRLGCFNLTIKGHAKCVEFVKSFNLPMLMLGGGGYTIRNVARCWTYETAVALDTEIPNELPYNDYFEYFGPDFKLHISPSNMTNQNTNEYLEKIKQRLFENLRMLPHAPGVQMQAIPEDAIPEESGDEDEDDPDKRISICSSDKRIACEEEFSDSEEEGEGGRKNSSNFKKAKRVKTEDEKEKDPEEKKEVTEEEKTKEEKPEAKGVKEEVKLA

## C=CCn1c(SCc2ccc(C(=O)Nc3ccccc3N)cc2)nnc1-c1ccncc1 [Compound 11c, 4-(((4-allyl-5-(pyridin-4-yl)-4H-1,2,4-triazol-3-yl)thio)methyl)-N-(2-aminophenyl)benzamide]
[1]
  GI% against all the tested cells: 40.12–99.81%
[2]
  GI% renal cancer cell lines A-498 and Caki-1: 89.34–99.81%
  IC50: 0.95 to 2.35 µM

## C=CCn1c(SCc2ccc(C(=O)NO)cc2)nnc1-c1ccncc1 [Compound 10c, 4-(((4-allyl-5-(pyridin-4-yl)-4H-1,2,4-triazol-3-yl)thio)methyl)-N-hydroxybenzamide]
[2]
  IC50: 6.19 to 20.9 µM

## Cn1c(SCCCCCC(=O)NO)nnc1-c1ccncc1 [Compound 6a, N-hydroxy-6-((4-methyl-5-(pyridin-4-yl)-4H-1,2,4-triazol-3-yl)thio)hexanamide]
[1]
  GI% against all the tested cells: 40.12–99.81%
HDAC1
  IC50: 12.3 ± 1.64 µM
Caki-1 cells; 1.5 μM
  percentage of cells in G1 phase: decreased
  percentage of cells in S phase: minor changes
Caki-1 cells; control 5.5%
  percentage of cells in G2/M phase: 35%
[2]
  GI% renal cancer cell lines A-498 and Caki-1: 89.34–99.81%
  IC50: 0.95 to 2.35 µM
[3]; [8]
  Akt phosphorylation: substantial ability to inhibit
  FAK phosphorylation: steady ability to inhibit
  HDAC2 expression: steady ability to inhibit
caspase-3
  Caspase-3 concentration: 515.40 pg/mL
STAT3 in A-498 cells
  STAT3 activation: inhibit
A-498 cells [4]; 1.5 μM
  percentage of cells in G1 phase: decreased
  percentage of cells in S phase: minor changes
A-498 cells [4]; control 18%
  percentage of cells in G2/M phase: 65%
caspase-9
  Caspase-9 Concentration: 28.47 ng/mL
[5]
  FAK phosphorylation: decreased
  expression level of HDAC2: decreased
[6]
  FAK phosphorylation: decreased
  expression level of HDAC2: decreased
caspase-8
  Caspase-8 Concentration: 0.888 ng/mL

## CCCC(CCC)C(=O)O [VPA, valproic acid, reference compound]
A-498 cells [7]
  IC50: 3090 µM
[3]; [9]
  Akt phosphorylation: drastic overexpression
  HDAC2 expression: lower ability to inhibit

## O=C(NO)c1ccc(CSc2nnc(-c3ccncc3)n2-c2ccccc2)cc1 [Compound 10d, N-hydroxy-4-(((4-phenyl-5-(pyridin-4-yl)-4H-1,2,4-triazol-3-yl)thio)methyl)benzamide]
[2]
  IC50: 6.19 to 20.9 µM

## Cn1c(SCc2ccc(C(=O)Nc3ccccc3N)cc2)nnc1-c1ccncc1 [Compound 11a, N-(2-aminophenyl)-4-(((4-methyl-5-(pyridin-4-yl)-4H-1,2,4-triazol-3-yl)thio)methyl)benzamide]
[2]
  IC50: 6.19 to 20.9 µM

## C=CCn1c(SCCCCCC(=O)Nc2ccccc2N)nnc1-c1ccncc1 [Compound 7c, 6-((4-allyl-5-(pyridin-4-yl)-4H-1,2,4-triazol-3-yl)thio)-N-(2-aminophenyl)hexanamide]
[1]
  GI% against all the tested cells: 40.12–99.81%
[2]
  GI% renal cancer cell lines A-498 and Caki-1: 89.34–99.81%
  IC50: 0.95 to 2.35 µM
[5]
  FAK phosphorylation: entirely blocked
[6]
  FAK phosphorylation: entirely blocked

## Nc1ccccc1NC(=O)CCCCCSc1nnc(-c2ccncc2)n1-c1ccccc1 [Compound 7d, N-(2-aminophenyl)-6-((4-phenyl-5-(pyridin-4-yl)-4H-1,2,4-triazol-3-yl)thio)hexanamide]
K562
  inhibition at 10 µM: 15.1%

## O=C(O)CCCCCSc1nnc(-c2ccncc2)n1-c1ccccc1 [Compound 5d, 6-((4-phenyl-5-(pyridin-4-yl)-4H-1,2,4-triazol-3-yl)thio)hexanoic acid]
[1]
  GI% against all the tested cells: 40.12–99.81%
[2]
  GI% renal cancer cell lines A-498 and Caki-1: 89.34–99.81%
  IC50: 0.95 to 2.35 µM

## Cn1c(SCCCCCC(=O)Nc2ccccc2N)nnc1-c1ccncc1 [Compound 7a, N-(2-aminophenyl)-6-((4-methyl-5-(pyridin-4-yl)-4H-1,2,4-triazol-3-yl)thio)hexanamide]
[2]
  IC50: 6.19 to 20.9 µM

## Nc1ccccc1NC(=O)c1ccc(CSc2nnc(-c3ccncc3)n2-c2ccccc2)cc1 [Compound 11d, N-(2-aminophenyl)-4-(((4-phenyl-5-(pyridin-4-yl)-4H-1,2,4-triazol-3-yl)thio)methyl)benzamide]
HCT116
  inhibition at 10 µM: 45.4%
[2]
  IC50: 6.19 to 20.9 µM

## Cn1c(SCc2ccc(C(=O)NO)cc2)nnc1-c1ccncc1 [Compound 10a, N-hydroxy-4-(((4-methyl-5-(pyridin-4-yl)-4H-1,2,4-triazol-3-yl)thio)methyl)benzamide]
HCT116
  inhibition at 10 µM: 32.4%
[2]
  IC50: 6.19 to 20.9 µM
